According to ChEMBL document CHEMBL4422689, “Discovery of 4'-OH-flurbiprofen Mannich base derivatives as potential Alzheimer's disease treatment with multiple inhibitory activities” (Bioorg Med Chem, 2019):
Active and inactive are the calls of the source. No cut-off for these calls is given here.

Assays:
[1] = Inhibition of Cu2+-induced human amyloid beta (1 to 42) aggregation at 25 uM after 24 hrs by thioflavin T-based fluorometric assay relative to control
[2] = molecular target: Acetylcholinesterase (Electrophorus electricus) (UniProt O42275); assay: Inhibition of Electrophorus electricus AChE at 50 uM using acetylthiocholine iodide as substrate measured after 15 mins by Ellman's method relative to control
Acetylcholinesterase (Electrophorus electricus), sequence (O42275 24-633 limits assumed): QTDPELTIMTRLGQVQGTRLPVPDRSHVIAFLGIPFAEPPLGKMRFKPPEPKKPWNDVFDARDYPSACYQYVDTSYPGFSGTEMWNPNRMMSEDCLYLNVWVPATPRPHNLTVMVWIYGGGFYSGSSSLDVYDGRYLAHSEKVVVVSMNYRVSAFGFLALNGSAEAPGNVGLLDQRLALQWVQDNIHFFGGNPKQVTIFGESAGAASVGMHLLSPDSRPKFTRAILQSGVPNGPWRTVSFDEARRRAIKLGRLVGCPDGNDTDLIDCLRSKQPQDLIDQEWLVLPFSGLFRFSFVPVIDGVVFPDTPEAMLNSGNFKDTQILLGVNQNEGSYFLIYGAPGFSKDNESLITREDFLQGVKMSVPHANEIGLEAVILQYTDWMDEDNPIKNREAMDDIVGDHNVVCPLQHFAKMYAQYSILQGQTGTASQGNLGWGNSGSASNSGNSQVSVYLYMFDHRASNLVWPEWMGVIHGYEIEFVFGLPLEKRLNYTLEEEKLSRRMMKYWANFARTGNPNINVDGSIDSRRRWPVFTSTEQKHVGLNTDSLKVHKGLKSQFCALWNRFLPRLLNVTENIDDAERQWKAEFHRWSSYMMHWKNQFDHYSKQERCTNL

[3] = molecular target: Amyloid-beta precursor protein (Homo sapiens) (UniProt P05067); assay: Inhibition of HFIP-pretreated human amyloid beta (1 to 42) self-induced aggregation at 25 uM measured after 24 hrs by thioflavin-T fluorescence assay relative to control
Amyloid-beta precursor protein (Homo sapiens), sequence (P05067 whole entry): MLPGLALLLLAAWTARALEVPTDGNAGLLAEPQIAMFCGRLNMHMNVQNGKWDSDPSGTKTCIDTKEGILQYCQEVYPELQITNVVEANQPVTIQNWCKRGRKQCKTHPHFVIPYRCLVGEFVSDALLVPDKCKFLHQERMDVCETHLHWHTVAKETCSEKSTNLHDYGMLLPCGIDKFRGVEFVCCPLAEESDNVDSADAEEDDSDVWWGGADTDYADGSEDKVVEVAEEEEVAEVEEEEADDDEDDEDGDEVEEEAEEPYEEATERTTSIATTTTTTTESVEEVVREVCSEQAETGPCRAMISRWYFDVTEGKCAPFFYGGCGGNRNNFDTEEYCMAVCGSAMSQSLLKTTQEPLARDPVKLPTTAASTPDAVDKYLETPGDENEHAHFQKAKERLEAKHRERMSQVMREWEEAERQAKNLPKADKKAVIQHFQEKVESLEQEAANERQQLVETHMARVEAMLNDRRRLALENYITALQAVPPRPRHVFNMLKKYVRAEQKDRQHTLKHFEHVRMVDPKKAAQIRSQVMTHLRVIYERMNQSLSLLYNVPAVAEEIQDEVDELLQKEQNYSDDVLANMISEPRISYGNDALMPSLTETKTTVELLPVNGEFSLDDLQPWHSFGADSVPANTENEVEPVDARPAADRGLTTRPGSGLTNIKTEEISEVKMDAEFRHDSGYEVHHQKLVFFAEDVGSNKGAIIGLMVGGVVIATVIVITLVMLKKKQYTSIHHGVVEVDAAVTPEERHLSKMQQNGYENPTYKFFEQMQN

[4] = Antioxidant activity assessed as trolox equivalents of AAPH radical scavenging activity at 1 to 10 uM preincubated for 15 mins followed by AAPH addition measured every min for 90 mins by ORAC-FL assay; type: functional
[5] = molecular target: Butyrylcholinesterase (BuChE) (Rattus norvegicus, UniProt Q9JKC1); assay: (§1) Inhibition of rat serum BuChE at 25 uM using butyrylthiocholine iodide as substrate after 15 mins by Ellman's method relative to control; conditions: rat serum, probe butyrylthiocholine iodide
Butyrylcholinesterase (BuChE), sequence (Q9JKC1 whole entry): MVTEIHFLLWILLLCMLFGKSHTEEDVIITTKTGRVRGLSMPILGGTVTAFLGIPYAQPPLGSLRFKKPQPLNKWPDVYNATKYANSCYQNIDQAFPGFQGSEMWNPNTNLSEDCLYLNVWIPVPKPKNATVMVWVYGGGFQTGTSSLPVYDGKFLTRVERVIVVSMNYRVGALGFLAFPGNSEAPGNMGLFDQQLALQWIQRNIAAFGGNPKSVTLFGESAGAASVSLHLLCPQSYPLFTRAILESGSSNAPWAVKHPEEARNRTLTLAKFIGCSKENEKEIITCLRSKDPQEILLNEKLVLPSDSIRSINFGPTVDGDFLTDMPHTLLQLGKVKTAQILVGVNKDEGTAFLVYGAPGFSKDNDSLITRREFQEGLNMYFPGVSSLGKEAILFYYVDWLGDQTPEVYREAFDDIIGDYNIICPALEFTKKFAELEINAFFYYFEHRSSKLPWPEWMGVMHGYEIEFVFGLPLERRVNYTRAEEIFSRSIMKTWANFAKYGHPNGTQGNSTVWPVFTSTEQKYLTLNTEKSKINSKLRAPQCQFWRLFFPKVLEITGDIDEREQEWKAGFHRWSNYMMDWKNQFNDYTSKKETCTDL

BV-2 [6] = assay: Inhibition of LPS-induced nitric oxide production in mouse BV2 cells at 2.5 uM pretreated for 30 mins followed by LPS-stimulation and measured after 24 hrs by Griess assay relative to control; type: functional
BV-2 [7] = assay: Inhibition of LPS-induced nitric oxide production in mouse BV2 cells at 10 uM pretreated for 30 mins followed by LPS-stimulation and measured after 24 hrs by Griess assay relative to control; type: functional
[8] = Metal chelating activity of the compound assessed as formation of Fe2+-compound complex by measuring absorbance at 37.5 uM after 30 mins by UV-vis absorption spectra analysis
BV-2 [9] = assay: Inhibition of LPS-induced nitric oxide production in mouse BV2 cells at 0.5 uM pretreated for 30 mins followed by LPS-stimulation and measured after 24 hrs by Griess assay relative to control; type: functional
BV-2 [10] = assay: Cytotoxicity against mouse BV2 cells assessed as effect on cell viability up to 10 uM after 24 hrs by MTT assay; type: cell-based; conditions: bv-2, 24 h
BV-2 [11] = assay: Inhibition of LPS-induced TNFalpha production in mouse BV2 cells at 2.5 uM pretreated for 30 mins followed by LPS-stimulation and measured after 24 hrs by ELISA relative to control; type: functional
[12] = Metal chelating activity of the compound assessed as formation of Fe2+-compound complex by measuring red shift in maximum absorption at 37.5 uM after 30 mins by UV-vis absorption spectra analysis
[13] = Metal chelating activity of the compound assessed as formation of Zn2+-compound complex at 37.5 uM after 30 mins by UV-vis absorption spectra analysis
[14] = Metal chelating activity of the compound assessed as formation of Al3+-compound complex by measuring red shift in maximum absorption at 37.5 uM after 30 mins by UV-vis absorption spectra analysis
[15] = Metal chelating activity of the compound assessed as formation of Cu2+-compound complex by measuring absorbance at 37.5 uM after 30 mins by UV-vis absorption spectra analysis
BV-2 [16] = assay: Inhibition of LPS-induced TNFalpha production in mouse BV2 cells at 10 uM pretreated for 30 mins followed by LPS-stimulation and measured after 24 hrs by ELISA relative to control; type: functional
[17] = Metal chelating activity of the compound assessed as formation of Cu2+-compound complex by measuring red shift in maximum absorption at 37.5 uM after 30 mins by UV-vis absorption spectra analysis
BV-2 [18] = assay: Inhibition of LPS-induced TNFalpha production in mouse BV2 cells at 0.5 uM pretreated for 30 mins followed by LPS-stimulation and measured after 24 hrs by ELISA relative to control; type: functional
[19] = Permeability of the compound in pH 7.4 PBS/EtOH at 100 ug/ml after 18 hrs by PAMPA-BBB assay
BV-2 [20] = assay: Cytotoxicity against LPS-stimulated mouse BV2 cells assessed as effect on cell viability at 0.5 to 10 uM pretreated for 30 mins followed by LPS-stimulation and measured after 24 hrs by MTT assay; type: cell-based; conditions: bv-2, 24 h
BV-2 [21] = assay: Cytotoxicity against LPS-stimulated mouse BV2 cells assessed as effect on cell viability at 2.5 to 10 uM pretreated for 30 mins followed by LPS-stimulation and measured after 24 hrs by MTT assay; type: cell-based; conditions: bv-2, 24 h
Butyrylcholinesterase = Butyrylcholinesterase (Rattus norvegicus, UniProt Q9JKC1); assay: as §1; conditions: 0.25 h, 25 µM
Butyrylcholinesterase, sequence (Q9JKC1 whole entry): as above

COc1cc2c(cc1OC)C(=O)C(CC1CCN(Cc3ccccc3)CC1)C2 (stereo not drawn)
inhibition [1]: < 5%

COC(=O)C(C)c1ccc(-c2ccc(O)c(CN3CCN(Cc4ccccc4)CC3)c2)c(F)c1 (stereo not drawn)
inhibition [2]: 38.3%
inhibition [1]: 39.2%
inhibition [3]: 28.4%
Activity [4]: 1.19 µMequiv/µM
inhibition at 0.25 h, 25 µM [5]: 2.86%

CCN(Cc1cc(-c2ccc(C(C)C(=O)OC)cc2F)ccc1O)Cc1ccccc1N(C)C (stereo not drawn)
inhibition [2]: 45.5%
inhibition [1]: 42.1%
inhibition [3]: 60.6%
Activity [4]: 1.57 µMequiv/µM
inhibition at 0.25 h, 25 µM [5]: 16.3%

CCN(Cc1ccc(N(C)C)cc1)Cc1cc(-c2ccc(C(C)C(=O)OC)cc2F)ccc1O (stereo not drawn)
inhibition at 2.5 µM (BV-2 [6]): 32.5%
inhibition [2]: 34.1%
inhibition at 10 µM (BV-2 [7]): 65%
inhibition [1]: 38%
Activity [8]: 0.1
inhibition at 0.5 µM (BV-2 [9]): 28.3%
inhibition [3]: 65%
Activity [4]: 4.09 µMequiv/µM
Activity (BV-2 [10]): Non-Toxic
inhibition at 2.5 µM (BV-2 [11]): 55.3%
Activity [12]: 270 nm
Activity [13]: inactive
Activity [14]: 278 nm
Activity [15]: 0.1
inhibition at 10 µM (BV-2 [16]): 68.2%
Activity [17]: 270 nm
inhibition at 0.25 h, 25 µM [5]: 2.21%
inhibition at 0.5 µM (BV-2 [18]): 25.3%
Papp at 18 h, 100 ug/ml [19]: 8.54 ×10⁻⁶ cm/s
Activity (BV-2 [20]): Non-Toxic
Activity (BV-2 [21]): Non-Toxic

COC(=O)C(C)c1ccc(-c2ccc(O)c(CN3CCCC3)c2)c(F)c1 (stereo not drawn)
inhibition [2]: 17%
inhibition [1]: 28.5%
inhibition [3]: 15.8%
Activity [4]: 2.13 µMequiv/µM
inhibition at 0.25 h, 25 µM [5]: 1.38%

COC(=O)C(C)c1ccc(-c2ccc(O)c(CN(C)Cc3ccccc3)c2)c(F)c1 (stereo not drawn)
inhibition [2]: 35.1%
inhibition [1]: 31.2%
inhibition [3]: 36.7%
Activity [4]: 1.59 µMequiv/µM
inhibition at 0.25 h, 25 µM [5]: 1.28%

CCN(Cc1cc(-c2ccc(C(C)C(=O)OC)cc2F)ccc1O)Cc1ccccc1OC (stereo not drawn)
inhibition [2]: 28%
inhibition [1]: 42.5%
inhibition [3]: 60.5%
Activity [4]: 2.6 µMequiv/µM
inhibition at 0.25 h, 25 µM [5]: 5.12%

CCN1CCN(Cc2cc(-c3ccc(C(C)C(=O)OC)cc3F)ccc2O)CC1 (stereo not drawn)
inhibition [2]: 7.13%
inhibition [1]: 33.9%
inhibition [3]: 28.9%
Activity [4]: 2.16 µMequiv/µM
inhibition at 0.25 h, 25 µM [5]: 4.28%

COC(=O)C(C)c1ccc(-c2ccc(O)c(CN3CCOCC3)c2)c(F)c1 (stereo not drawn)
inhibition [2]: 14.9%
inhibition [1]: 22.1%
inhibition [3]: 12.9%
Activity [4]: 2.14 µMequiv/µM
inhibition at 0.25 h, 25 µM [5]: 1.19%

CCN(Cc1ccccc1)Cc1cc(-c2ccc(C(C)C(=O)OC)cc2F)ccc1O (stereo not drawn)
inhibition [2]: 36.4%
inhibition [1]: 34.9%
inhibition [3]: 36.8%
Activity [4]: 2.24 µMequiv/µM
inhibition at 0.25 h, 25 µM [5]: 4.61%

CC(C(=O)O)c1ccc(-c2ccccc2)c(F)c1 (stereo not drawn) [FLURBIPROFEN]
inhibition at 2.5 µM (BV-2 [6]): 11.8%
inhibition [2]: 15.6%
inhibition at 10 µM (BV-2 [7]): 23%
inhibition [1]: 7.56%
inhibition [3]: 12.8%
Activity [4]: 0.18 µMequiv/µM
inhibition at 2.5 µM (BV-2 [11]): 9.6%
inhibition at 10 µM (BV-2 [16]): 30.3%
inhibition (INH) (Butyrylcholinesterase): Not Active
Papp at 18 h, 100 ug/ml [19]: 1.56 ×10⁻⁶ cm/s

COC(=O)C(C)c1ccc(-c2ccc(O)c(CN(C)Cc3ccccc3OC)c2)c(F)c1 (stereo not drawn)
inhibition [2]: 28%
inhibition [1]: 38.8%
inhibition [3]: 60.6%
Activity [4]: 2.12 µMequiv/µM
inhibition at 0.25 h, 25 µM [5]: 3.06%

COC(=O)C(C)c1ccc(-c2ccc(O)c(CN3CCCCC3)c2)c(F)c1 (stereo not drawn)
inhibition [2]: 22.9%
inhibition [1]: 11.2%
inhibition [3]: 15.5%
Activity [4]: 1.51 µMequiv/µM
inhibition at 0.25 h, 25 µM [5]: 1.95%

COC(=O)C(C)c1ccc(-c2ccc(O)c(CN(C)C)c2)c(F)c1 (stereo not drawn)
inhibition at 2.5 µM (BV-2 [6]): 39.2%
inhibition [2]: 18.6%
inhibition at 10 µM (BV-2 [7]): 61.7%
inhibition [1]: 38.1%
inhibition at 0.5 µM (BV-2 [9]): 21.7%
inhibition [3]: 42.7%
Activity [4]: 2.07 µMequiv/µM
Activity (BV-2 [10]): Non-Toxic
inhibition at 2.5 µM (BV-2 [11]): 51.2%
inhibition at 10 µM (BV-2 [16]): 72.9%
inhibition at 0.25 h, 25 µM [5]: 2.56%
inhibition at 0.5 µM (BV-2 [18]): 21.8%
Papp at 18 h, 100 ug/ml [19]: 6.78 ×10⁻⁶ cm/s
Activity (BV-2 [20]): Non-Toxic
Activity (BV-2 [21]): Non-Toxic

COC(=O)C(C)c1ccc(-c2ccc(O)c(CN3CCN(C)CC3)c2)c(F)c1 (stereo not drawn)
inhibition [2]: 13.3%
inhibition [1]: 16.2%
inhibition [3]: 34.1%
Activity [4]: 2.12 µMequiv/µM
inhibition at 0.25 h, 25 µM [5]: 1.12%

CCN(CC)Cc1cc(-c2ccc(C(C)C(=O)OC)cc2F)ccc1O (stereo not drawn)
inhibition [2]: 14.3%
inhibition [1]: 29.7%
inhibition [3]: 8.3%
Activity [4]: 1.81 µMequiv/µM
inhibition at 0.25 h, 25 µM [5]: 1.58%

COc1cc(/C=C/C(=O)CC(=O)/C=C/c2ccc(O)c(OC)c2)ccc1O
inhibition [1]: 67.2%
